# Laboratory results taken from US12331035B2, “Bicyclic compound and use thereof” (SK BIOPHARMACEUTICALS CO., LTD., priority 2019, dated 2025).
# Molecular target: T1, PRMT5-MEP50 enzyme complex (Homo sapiens, UniProt O14744)
# T1 construct: purchased BPS Bioscience (USA) 51045
# Test: In vitro PRMT5 enzyme activity assay (methylation of histone H4 arginine H4R3, ELISA absorbance at 450 nm)
# Type: biochemical
# Details: S-adenosylmethionine, histone H4 peptide, 2 hours at room temperature, 8 points 10 μM to 0.128 nM
# Procedure: Method for Measuring Enzyme Activity
# In vitro assay: PRMT5-MEP50 enzyme complex, cofactor S-adenosylmethionine (SAM) and histone H4 peptide were reacted in vitro, and methylation of arginine (H4R3) —which is the third amino acid of histone H4—was measured in order to measure the enzyme activity of PRMT5.
# Reagents: PRMT5-MEP50 enzyme complex (Catalog No. 51045), blocking buffer (52100-B), histone methyltransferase reaction buffer 2 (4×HMT assay buffer 2, Catalog No. 52170), and primary antibody (primary antibody 4-3, Catalog No. 52150) were purchased from BPS Bioscience (USA). The histone H4 peptide (1-20 amino acids) was custom made by Komabiotech (Korea) and used. S-adenosylmethionine was purchased from NEB (New England Biolabs, USA, Catalog No. B9003S). Plates for coating histone H4 peptide, washing buffer and color development reagent were purchased from the following vendors: Plate (Immobilizer™-Amino Plate, NUNC, Denmark, Catalog No. 436023), carbonate-bicarbonate buffer (Sigma-Aldrich, USA, Catalog No. C3041), washing buffer (10×TBST, Biosesang, Korea, Catalog No. T2005), TMB ELISA substrate (Abcam, UK, Catalog No. ab210902), horseradish peroxidase (HRP)-conjugated antibody (Abcam, UK, Catalog No. ab6721).
# Experimental procedure: The histone H4 peptide was diluted with carbonate-bicarbonate buffer and prepared to 100 μg/mL, and then dispensed onto the plate per 100 μL and reacted at 37° C. for 1 hour. PRMT5-MEP50 enzyme complex and S-adenosylmethionine were diluted with histone methyltransferase reaction buffer to prepare 5 μg/mL and 2 μM, respectively, and then 20 μL of PRMT5-MEP50 enzyme complex and 25 μL of S-adenosylmethionine were dispensed onto the plate prepared above. 5 μL of the compound diluted with 10% dimethyl sulfoxide solution was added thereto and reacted at room temperature for 2 hours (final volume=50 μL). The concentration of the compound was diluted 1:5 from 10 μM until the lowest concentration of 0.128 nM, and 8 points were used for the test. After preparing the primary antibody by diluting 1:2000 with blocking buffer, 100 μL was added to the plate and reacted at room temperature for 1 hour. After preparing horseradish peroxidase-conjugated antibody by diluting 1:10,000 with blocking buffer, 100 μL was added to the plate and reacted at room temperature for 1 hour. 100 μL of TMB substrate was added and reacted for 3 minutes at room temperature, and 100 μL of 1 N sulfuric acid was then added to terminate the reaction. Then, the absorbance at 450 nm was measured to calculate the IC50 value of the compound. (+++: 1 to 100 nM, ++: greater than 100 to 1,000 nM, +: greater than 1,000 to 10,000 nM)
# T1 sequence (O14744 2-637 limits assumed): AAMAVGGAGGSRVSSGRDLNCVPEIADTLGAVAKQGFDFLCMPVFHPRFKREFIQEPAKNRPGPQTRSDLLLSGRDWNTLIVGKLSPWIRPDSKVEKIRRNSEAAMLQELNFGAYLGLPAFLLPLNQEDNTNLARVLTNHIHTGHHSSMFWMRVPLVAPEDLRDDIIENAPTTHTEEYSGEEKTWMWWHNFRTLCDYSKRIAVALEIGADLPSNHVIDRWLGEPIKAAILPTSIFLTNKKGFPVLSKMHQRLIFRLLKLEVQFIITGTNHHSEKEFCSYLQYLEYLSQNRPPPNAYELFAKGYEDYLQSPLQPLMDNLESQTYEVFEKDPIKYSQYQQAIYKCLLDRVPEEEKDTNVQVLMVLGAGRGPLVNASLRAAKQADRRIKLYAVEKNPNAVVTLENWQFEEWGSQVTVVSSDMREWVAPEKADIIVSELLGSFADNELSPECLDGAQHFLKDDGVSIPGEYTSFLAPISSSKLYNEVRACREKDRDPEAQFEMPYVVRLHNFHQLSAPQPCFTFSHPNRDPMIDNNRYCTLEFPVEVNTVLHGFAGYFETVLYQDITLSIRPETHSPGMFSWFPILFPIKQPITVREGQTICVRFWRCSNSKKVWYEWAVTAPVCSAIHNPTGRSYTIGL
# T1 sequence (Q9BQA1 2-342 partner limits assumed): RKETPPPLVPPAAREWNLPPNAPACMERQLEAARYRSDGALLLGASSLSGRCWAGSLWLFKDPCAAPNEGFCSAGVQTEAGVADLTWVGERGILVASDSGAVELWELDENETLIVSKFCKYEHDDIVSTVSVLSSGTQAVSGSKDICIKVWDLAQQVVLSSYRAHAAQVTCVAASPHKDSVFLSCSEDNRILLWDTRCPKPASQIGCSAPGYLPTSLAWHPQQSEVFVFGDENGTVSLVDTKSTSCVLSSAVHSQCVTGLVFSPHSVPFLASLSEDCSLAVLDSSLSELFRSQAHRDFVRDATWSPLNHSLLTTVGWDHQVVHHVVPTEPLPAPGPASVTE
row,IC50 [µM],Structure (SMILES)
1,0.1 to 1,"CC1CC(C)CN(c2ccc3c(c2)CCN(C[C@H](O)CN2CCc4ccccc4C2)C3=O)C1 (stereo partly drawn) [Example 28, 2-[(2R)-3-(3,4-dihydro-1H-isoquinolin-2-yl)-2-hydroxy-propyl]-6-(3,5-dimethyl-1-piperidyl)-3,4-dihydroisoquinolin-1-one]"
2,0.001 to 0.1,"CC1CN(c2ccc3c(c2)CCN(C[C@H](O)CN2CCc4ccccc4C2)C3=O)CC(C)N1 (stereo partly drawn) [Example 29, 2-[(2R)-3-(3,4-dihydro-1H-isoquinolin-2-yl)-2-hydroxy-propyl]-6-(3,5-dimethylpiperazin-1-yl)-3,4-dihydroisoquinolin-1-one]"
3,0.001 to 0.1,"O=C1c2ccc(NCC3CCOC3)cc2CCN1C[C@H](O)CN1CCc2ccccc2C1 (stereo partly drawn) [Example 30, 2-[(2R)-3-(3,4-dihydro-1H-isoquinolin-2-yl)-2-hydroxy-propyl]-6-(tetrahydrofuran-3-ylmethylamino)-3,4-dihydroisoquinolin-1-one]"
4,0.001 to 0.1,"O=C1c2ccc(NCC3CCNCC3)cc2CCN1C[C@H](O)CN1CCc2ccccc2C1 [Example 31, 2-[(2R)-3-(3,4-dihydro-1H-isoquinolin-2-yl)-2-hydroxy-propyl]-6-(4-piperidylmethylamino)-3,4-dihydroisoquinolin-1-one]"
5,0.001 to 0.1,"CC(=O)N1CCC(Nc2ccc3c(c2)CCN(C[C@H](O)CN2CCc4ccccc4C2)C3=O)CC1 [Example 32, 6-[(1-acetyl-4-piperidyl)amino]-2-[(2R)-3-(3,4-dihydro-1H-isoquinolin-2-yl)-2-hydroxy-propyl]-3,4-dihydroisoquinolin-1-one]"
6,0.001 to 0.1,"O=C(CN1CCOCC1)Nc1ccc2c(c1)CCN(C[C@H](O)CN1CCc3ccccc3C1)C2=O [Example 33, N-[2-[(2R)-3-(3,4-dihydro-1H-isoquinolin-2-yl)-2-hydroxy-propyl]-1-oxo-3,4-dihydroisoquinolin-6-yl]-2-morpholino-acetamide]"
7,1 to 10,"O=C1c2ccc(NC3CCNCC3)cc2CCN1C[C@H](O)CN1CCc2ccccc2C1 [Example 34, 2-[(2R)-3-(3,4-dihydro-1H-isoquinolin-2-yl)-2-hydroxy-propyl]-6-(4-piperidylamino)-3,4-dihydroisoquinolin-1-one]"
8,0.001 to 0.1,"O=C1c2ccc(N3CCC(CO)CC3)cc2CCN1C[C@H](O)CN1CCc2ccccc2C1 [Example 35, 2-[(2R)-3-(3,4-dihydro-1H-isoquinolin-2-yl)-2-hydroxy-propyl]-6-[4-(hydroxymethyl)-1-piperidyl]-3,4-dihydroisoquinolin-1-one]"
9,0.001 to 0.1,"O=C1c2ccc(N3CCCC(CO)C3)cc2CCN1C[C@H](O)CN1CCc2ccccc2C1 (stereo partly drawn) [Example 36, 2-[(2R)-3-(3,4-dihydro-1H-isoquinolin-2-yl)-2-hydroxy-propyl]-6-[3-(hydroxymethyl)-1-piperidyl]-3,4-dihydroisoquinolin-1-one]"
10,0.001 to 0.1,"O=C1c2ccc(N3CCC(O)CC3)cc2CCN1C[C@H](O)CN1CCc2ccccc2C1 [Example 37, 2-[(2R)-3-(3,4-dihydro-1H-isoquinolin-2-yl)-2-hydroxy-propyl]-6-(4-hydroxy-1-piperidyl)-3,4-dihydroisoquinolin-1-one]"
11,0.1 to 1,"O=C1c2ccc(N3CCCC(O)C3)cc2CCN1C[C@H](O)CN1CCc2ccccc2C1 (stereo partly drawn) [Example 38, 2-[(2R)-3-(3,4-dihydro-1H-isoquinolin-2-yl)-2-hydroxy-propyl]-6-(3-hydroxy-1-piperidyl)-3,4-dihydroisoquinolin-1-one]"
12,0.1 to 1,"O=C1c2ccc(N3CCOC3)cc2CCN1C[C@H](O)CN1CCc2ccccc2C1 [Example 39, 2-[(2R)-3-(3,4-dihydro-1H-isoquinolin-2-yl)-2-hydroxy-propyl]-6-oxazolidin-3-yl-3,4-dihydroisoquinolin-1-one]"
13,1 to 10,"CC1COCCN1c1ccc2c(c1)CCN(C[C@H](O)CN1CCc3ccccc3C1)C2=O (stereo partly drawn) [Example 40, 2-[(2R)-3-(3,4-dihydro-1H-isoquinolin-2-yl)-2-hydroxy-propyl]-6-(3-methylmorpholin-4-yl)-3,4-dihydroisoquinolin-1-one]"
14,0.001 to 0.1,"O=C(CO)Nc1ccc2c(c1)CCN(C[C@H](O)CN1CCc3ccccc3C1)C2=O [Example 41, N-[2-[(2R)-3-(3,4-dihydro-1H-isoquinolin-2-yl)-2-hydroxy-propyl]-1-oxo-3,4-dihydroisoquinolin-6-yl]-2-hydroxy-acetamide]"
15,0.1 to 1,"CC(=O)Nc1ccc2c(c1)CCN(C[C@H](O)CN1CCc3ccccc3C1)C2=O [Example 42, N-[2-[(2R)-3-(3,4-dihydro-1H-isoquinolin-2-yl)-2-hydroxy-propyl]-1-oxo-3,4-dihydroisoquinolin-6-yl]acetamide]"
16,1 to 10,"O=C1c2ccc(CN3CCOCC3)cc2CCN1C[C@H](O)CN1CCc2ccccc2C1 [Example 43, 2-[(2R)-3-(3,4-dihydro-1H-isoquinolin-2-yl)-2-hydroxy-propyl]-6-(morpholinomethyl)-3,4-dihydroisoquinolin-1-one]"
17,0.001 to 0.1,"O=C1c2ccc(N3CC4(COC4)C3)cc2CCN1C[C@H](O)CN1CCc2ccccc2C1 [Example 44, 2-[(2R)-3-(3,4-dihydro-1H-isoquinolin-2-yl)-2-hydroxy-propyl]-6-(2-oxa-6-azaspiro[3.3]heptan-6-yl)-3,4-dihydroisoquinolin-1-one]"
18,0.1 to 1,"O=C1c2ccc(N3CCOC3=O)cc2CCN1C[C@H](O)CN1CCc2ccccc2C1 [Example 45, 3-[2-[(2R)-3-(3,4-dihydro-1H-isoquinolin-2-yl)-2-hydroxy-propyl]-1-oxo-3,4-dihydroisoquinolin-6-yl]oxazolidin-2-one]"
19,0.1 to 1,"O=C1c2ccc(N3CC(CO)C3)cc2CCN1C[C@H](O)CN1CCc2ccccc2C1 [Example 46, 2-[(2R)-3-(3,4-dihydro-1H-isoquinolin-2-yl)-2-hydroxy-propyl]-6-[3-(hydroxymethyl)azetidin-1-yl]-3,4-dihydroisoquinolin-1-one]"
20,0.001 to 0.1,"C[C@H]1CN(c2ccc3c(c2)CCN(C[C@H](O)CN2CCc4ccccc4C2)C3=O)CCO1 [Example 47, 2-[(2R)-3-(3,4-dihydro-1H-isoquinolin-2-yl)-2-hydroxy-propyl]-6-[(2S)-2-methylmorpholin-4-yl]-3,4-dihydroisoquinolin-1-one]"
21,0.001 to 0.1,"COC1CCN(c2ccc3c(c2)CCN(C[C@H](O)CN2CCc4ccccc4C2)C3=O)CC1 [Example 48, 2-[(2R)-3-(3,4-dihydro-1H-isoquinolin-2-yl)-2-hydroxy-propyl]-6-(4-methoxy-1-piperidyl)-3,4-dihydroisoquinolin-1-one]"
22,0.001 to 0.1,"O=C1c2ccc(N3CCS(=O)(=O)CC3)cc2CCN1C[C@H](O)CN1CCc2ccccc2C1 [Example 49, 2-[(2R)-3-(3,4-dihydro-1H-isoquinolin-2-yl)-2-hydroxy-propyl]-6-(1,1-dioxo-1,4-thiazinan-4-yl)-3,4-dihydroisoquinolin-1-one]"
23,0.1 to 1,"O=C1c2ccc(NC3CCOC3)cc2CCN1C[C@H](O)CN1CCc2ccccc2C1 (stereo partly drawn) [Example 50, 2-[(2R)-3-(3,4-dihydro-1H-isoquinolin-2-yl)-2-hydroxy-propyl]-6-(tetrahydrofuran-3-ylamino)-3,4-dihydroisoquinolin-1-one]"
24,0.1 to 1,"O=C1c2ccc(NC3COC3)cc2CCN1C[C@H](O)CN1CCc2ccccc2C1 [Example 51, 2-[(2R)-3-(3,4-dihydro-1H-isoquinolin-2-yl)-2-hydroxy-propyl]-6-(oxetan-3-ylamino)-3,4-dihydroisoquinolin-1-one]"
25,0.1 to 1,"CC(=O)N1CCN(c2ccc3c(c2)CCN(C[C@H](O)CN2CCc4ccccc4C2)C3=O)CC1 [Example 52, 6-(4-acetylpiperazin-1-yl)-2-[(2R)-3-(3,4-dihydro-1H-isoquinolin-2-yl)-2-hydroxy-propyl]-3,4-dihydroisoquinolin-1-one]"
26,0.001 to 0.1,"CC(C)(C)OC(=O)N1CCN(c2ccc3c(c2)CCN(C[C@H](O)CN2CCc4ccccc4C2)C3=O)CC1 [Example 53, tert-butyl 4-[2-[(2R)-3-(3,4-dihydro-1H-isoquinolin-2-yl)-2-hydroxy-propyl]-1-oxo-3,4-dihydroisoquinolin-6-yl]piperazine-1-carboxylate]"
27,0.001 to 0.1,"O=C1c2ccc(CN3CCCOCC3)cc2CCN1C[C@H](O)CN1CCc2ccccc2C1 [Example 54, 2-[(2R)-3-(3,4-dihydro-1H-isoquinolin-2-yl)-2-hydroxy-propyl]-6-(1,4-oxazepan-4-ylmethyl)-3,4-dihydroisoquinolin-1-one]"
